# Literature values, collected in publication PMC7457146 (Epigenomics, 2012).
# Several values for one entry are separate records, joined by “and”; a condition that tells them apart may be missing. Equal entries are not always repeated. Entries after “also recorded” stand apart in the source; their conditions may differ. Where two headings read alike, the source gives them in different places.
# Legend:
# HDAC6 = conditions: ref Data supplied by Gloucester Pharmaceuticles Inc. and performed by Epigentek 2007
# [1] = test system: HBL2, Granta519 and Jeko1 MCL cell lines; conditions: belinostat 100–1000 nM or romidepsin 1–40 nM
# HDAC3 = conditions: ref Data supplied by Gloucester Pharmaceuticles Inc. and performed by Epigentek 2007
# HDAC10 = conditions: ref Data supplied by Gloucester Pharmaceuticles Inc. and performed by Epigentek 2007
# HDAC8 = conditions: ref Data supplied by Gloucester Pharmaceuticles Inc. and performed by Epigentek 2007
# HDAC11 = conditions: ref Data supplied by Gloucester Pharmaceuticles Inc. and performed by Epigentek 2007
# HDAC5 = conditions: ref Data supplied by Gloucester Pharmaceuticles Inc. and performed by Epigentek 2007
# HDAC9 = conditions: ref Data supplied by Gloucester Pharmaceuticles Inc. and performed by Epigentek 2007
# HDAC4 = conditions: ref Data supplied by Gloucester Pharmaceuticles Inc. and performed by Epigentek 2007
# HDAC7 = conditions: ref Data supplied by Gloucester Pharmaceuticles Inc. and performed by Epigentek 2007
# [2] = test system: cutaneous T-cell lymphoma
# HDAC2 = conditions: ref Data supplied by Gloucester Pharmaceuticles Inc. and performed by Epigentek 2007
# VEGF mRNA = conditions: PC-3 prostate cancer cells, after 12 h
# [3] = test system: human lymphoma U-937 tumors; conditions: SCID mice with U-937 tumors; control median 20 days
# [4] = test system: cutaneous T-cell lymphoma; conditions: CTCL
# [5] = test system: pancreatic and other advanced solid tumors; conditions: in combination with gemcitabine
# [6] = test system: Prostate cancer: PC-3 and DU-145; conditions: read-out: Mean IC50; Prostate cancer cell lines, 72-h incubation; ref Data supplied by Gloucester Pharmaceuticals
# acute myeloid leukemia [7] = conditions: AML, 13 mg/m^2 iv. over 4 h days 1, 8, 15 of 28-day cycle
# [8] = not given; remark: listed apart in the source
# [9] = test system: Epstein-Barr virus-transformed lymphoblastoid cell tumors
# [10] = test system: chronic lymphocytic leukemia
# [11] = test system: malignant rhabdoid tumors; conditions: day 12; 1.2, 2.5 and 5 mg/kg on days 0, 4 and 8
# [12] = not given; remark: listed apart in the source
# [13] = 42 patients, Phase II trial
# [14] = test system: cutaneous T-cell lymphoma; remark: listed apart in the source
# multiple myeloma [15] = test system: multiple myeloma
# multiple myeloma [16] = conditions: with bortezomib and dexamethasone
# LNCaP cells = conditions: read-out: IC50 to induce growth delay
# CYP3A4 = conditions: CYP450 family CYP3A4 isoform
# refractory lung cancer = conditions: 17.8 mg/m^2 days 1 and 7 of 21-day cycles, 19 patients
# HDAC1 = conditions: ref Data supplied by Gloucester Pharmaceuticles Inc. and performed by Epigentek 2007
# acute myeloid leukemia [17] = conditions: ten AML patients, Phase I
# [18] = nonhuman primates
smiles,measurement,setting,value
O=C(/C=C/c1cccc(S(=O)(=O)Nc2ccccc2)c1)NO [belinostat],interaction with bortezomib (3–4 nM),[1],synergism in all cell lines
C/C=C1\NC(=O)[C@@H](CS)NC(=O)[C@@H](C(C)C)NC(=O)C[C@@H](/C=C/CCS)OC(=O)[C@H](C(C)C)NC1=O [Activated romidepsin],IC50,HDAC3,103 nM
same,IC50,HDAC10,368 nM
same,IC50,HDAC8,34.3 nM
same,IC50,HDAC11,64.1 nM
same,IC50,HDAC5,79.6 nM
same,IC50,HDAC9,2730 nM
same,IC50,HDAC4,95.7 nM
same,IC50,HDAC6,32.6 nM
same,IC50,HDAC7,279 nM
C/C=C1\NC(=O)[C@H]2CSSCC/C=C/[C@H](CC(=O)N[C@H](C(C)C)C(=O)N2)OC(=O)[C@H](C(C)C)NC1=O [Romidepsin],IC50,HDAC3,462 nM
same,half-life,,less than 3 h
same,terminal half-life,"Phase I PK studies, two-compartment model",2.92 h
same,IC50,HDAC10,1170 nM
same,overall response rate (ORR),"[2]; 71 patients advanced CTCL, 14 mg/m^2 days 1, 8, 15 of 28-day cycle",34%
same,Responses: PR,"[2]; Phase II, CTCL, 71 patients",20
same,Responses: SD,"[2]; Phase II, CTCL, 71 patients",26
same,decrease in expression of VEGF mRNA,VEGF mRNA,51%
same,median survival,[3],30.5 days and 33 days
same,patients achieving SD as best response,colorectal cancer,four out of 25
same,complete response (CR) rate,[4]; identical in both studies,6%
same,objective response rate,[4]; two studies,34% and 35%
same,IC50,HDAC11,169 nM
same,patients with SD lasting >4 cycles,[5],12
same,IC50,[6],2.98 nM
same,IC50,HDAC5,567 nM
same,patients with antileukemic activity,acute myeloid leukemia [7],five out of seven
same,maximum tolerated dose (MTD),"[8]; 4-h iv. infusion, day 1 and 5 schedule, Sandor et al.",17.8 mg/m^2
same,maximum tolerated dose (MTD),"[8]; day 1, 8 and 15 schedule every 28 days, Marshall et al.",13.3 mg/m^2
same,survival at 30 days,"[9]; mouse, in vivo",90%
same,increased level of active caspase 3,[9]; romidepsin-mediated apoptosis,12 fold
same,IC50,HDAC9,6580 nM
same,Responses,"[10]; Phase I, CLL, 10 patients",no formal CR or PR; also recorded: No PR/CR (see text)
same,average reduction in leukocyte counts,"[10]; seven CLL patients with high peripheral white cell counts, range: 45–76%",58%
same,mean tumor volume,[11],significant reduction
same,IC50,HDAC4,466 nM
same,aqueous solubility,[12],limited aqueous solubility
same,ECGs with asymptomatic T-wave flattening (grade 1) or ST-segment depression (grade 2),[13],over 50%
same,clinically significant pruritus relief,[14]; 28 out of 65 patients with moderate-to-severe pruritus at baseline,43%
same,ORR (severity-weighted assessment tool),[14]; 96 patients CTCL,34%
same,median time to progression,[14]; 96 patients CTCL,8 months
same,median time to response,[14]; 96 patients CTCL,2 months
same,Responses: PR,"[14]; Phase II, CTCL, 96 patients",24
same,Responses: SD,"[14]; Phase II, CTCL, 96 patients",26
same,Responses: SD,"multiple myeloma [15]; Phase II, MM, 12 patients",11 SD
same,clinical responses,"multiple myeloma [15]; single agent 13 mg/m^2, 13 MM patients",no clinical responses were observed
same,median overall survival,multiple myeloma [16],over 36 months
same,minimal responses,multiple myeloma [16]; 25 pretreated myeloma patients,three
same,very good PRs,multiple myeloma [16]; 25 pretreated myeloma patients,seven
same,median time to progression,multiple myeloma [16]; 95% CI: 5.5–19.6,7.2 months
same,IC50,LNCaP cells,~5.79 nM
same,primary metabolising enzyme,CYP3A4,primarily metabolized by the CYP450 family CYP3A4 isoform
same,objective responses,refractory lung cancer,no objective responses
same,patients with disease stabilization,refractory lung cancer,nine
same,IC50,HDAC1,111 nM
same,maximum tolerated dose (MTD),"HDAC activity; 4-h iv. infusion on days 1, 8 and 15 of a 28-day cycle, pharmacodynamic Phase I study",13 mg/m^2
same,HDAC activity,HDAC activity; 24 h after treatment,59 % of baseline
same,terminal elimination half-life,HDAC activity; at 13 mg/m^2,3.67 h
same,HDAC activity,HDAC activity; immediately after treatment,24.6 % of baseline
same,CR or PR,acute myeloid leukemia [17],none achieved CR or PR
same,apoptosis,U266 myeloma cells; romidepsin 0.01 μmol/l (control 28%),43%
same,apoptosis,U266 myeloma cells; romidepsin 0.01 μmol/l with melphalan 10 μmol/l,73%
same,IC50,HDAC7,2470 nM
same,interaction with bortezomib (3–4 nM),[1],synergism in all cell lines
same,increase in MDR1,MDR1; malignant PBMCs of patients in NIH clinical trials,eightfold
same,increase in MDR1,MDR1; normal PBMCs of patients in NIH clinical trials,sixfold
N[C@@H](Cc1ccc(N(CCCl)CCCl)cc1)C(=O)O [melphalan],apoptosis,U266 myeloma cells; melphalan 10 μmol/l (control 28%),44%
